Data set [1] is described as follows: Degradation of apelin peptides by plasma from fasted normal NIH Swiss mice (rp-HPLC, MALDI-TOF MS). Format: in vitro ADME. In outline: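 Apelin peptides were incubated with plasma from fasted normal NIH Swiss mice for 4 h, and the reaction was stopped with TFA. Products were separated by C-8 rp-HPLC with detection at 214 nm. Peak fractions were identified by MALDI-TOF MS, giving fragment molecular weights and retention times.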

The test system of data set [2] is high fat fed NIH Swiss mice. Nature of the data set: 28 day long-term study of fatty acid apelin analogues, once daily i.p. administration. Format: in vivo. From the text:
NIH Swiss mice (Harlan UK Ltd., Blackthorne, UK) were derived from a nucleus colony obtained from the National Institute of Health, Bethesda, Md., USA. One group of mice were maintained on a standard rodent diet (10% fat, 30% protein, 60% carbohydrate; percent of total energy 12.99 kJ/g, Trouw Nutrition, Cheshire, UK) and used as a model of normal glycaemia. Other NIH Swiss mice were maintained on a high fat diet (45% fat, 20% protein, 35% carbohydrate; percent of total energy 26.15 kJ/g; Dietex, Essex, UK) from 8 weeks of age for 150 days to produce a model of diet induced obesity-diabetes. […] All mice were housed in an air-conditioned room maintained at 22±2° C. with a 12 h light: 12 h dark cycle (08:00-20:00 h), were singly caged, and selected for experimental groups according to body weight and non-fasted blood glucose. Drinking water and diet were freely available. All animal studies were performed in accordance with the UK Animals (Scientific Procedures) Act 1986.
For another 28 day long-term study of selected fatty acid apelin analogues administered once daily, normal control NIH Swiss (n=8) and high-fat fed NIH Swiss (n=8) were grouped and received once daily i.p. injections of saline vehicle (0.9% NaCl (w/v)) at 17:00 h over a 4 day run-in period. Following the run-in period, normal control (n=8) and high-fat fed mice (n=8) received once daily (17:00 h) i.p. administration of saline vehicle (0.9% NaCl (w/v)) for 28 days. Additional groups of high-fat fed mice (n=8) received once daily i.p. injections of (Lys^8gluPal)apelin-13-amide, pGlu(Lys^8gluPal)apelin-13-amide or liraglutide (each at 25 nmol/kg bw) over a 28 day treatment period.
Food intake, body weight, blood glucose and plasma insulin were monitored at intervals of 2-3 days throughout the run-in and 28 day treatment period. Blood samples for glucose and plasma insulin measurement were collected at intervals throughout the study from the cut tail vein of conscious mice. Following the 28 day treatment period, oral, i.p. and meal test glucose tolerance ([…].), and insulin sensitivity (25 U/kg bw) tests were performed. Glucose was measured using an Ascensia Contour meter and blood was collected and processed for plasma insulin analysis by radioimmunoassay. Body weight and fat mass was also assessed using the PIXImus DEXA scanner whilst energy expenditure, intake, food intake and feeding bouts were assessed using the CLAMS metabolic chamber. HbA1c was analysed post 28 days using Bayer A1C Now^+ Multi Test meter. Lipid profile test was obtained by using the iLab analyser. Cholesterol, triglyceride and HDL-cholesterol levels were measured, in plasma (3 μl), using the iLab analyser. LDL-cholesterol levels were obtained using the Friedewald equation=total cholesterol−HDL−(triglycerides/3).

Where [3] appears, read: NIH Swiss, mouse, plasma, pH 7.4.
[4] abbreviates: once daily 25 nmol/kg bw, 28 days.

1 molecule from patent US10118954B2, “Apelin analogues” (University of Ulster, priority 2014, dated 2018) can be followed below.

One may read the half-life as the time needed for the level to fall by half in the phase considered. A lower half-life goes with fast loss. As usually defined, the share remaining is the share of the starting amount still present when the sample was taken. Low values mean more turnover, high ones less turnover.

SMILES strings stand for the structures.

Consider `CCCCCCCCCCCCCCCC(=O)N[C@@H](CCC(=O)NCCCC[C@H](NC(=O)[C@H](Cc1c[nH]cn1)NC(=O)[C@H](CO)NC(=O)[C@H](CC(C)C)NC(=O)[C@H](CCCNC(=N)N)NC(=O)[C@@H]1CCCN1C(=O)[C@H](CCCNC(=N)N)NC(=O)[C@@H]1CCC(=O)N1)C(=O)NCC(=O)N1CCC[C@H]1C(=O)N[C@@H](CCSC)C(=O)N1CCC[C@H]1C(=O)N[C@@H](Cc1ccccc1)C(N)=O)C(=O)O` [pGlu(Lys^8GluPAL)apelin-13-amide], for which the “Rank order of stability” value in data set [1] is recorded as “=1”. Further, in data set [1] (NIH Swiss, mouse, plasma, 263 µg/mL, pH 7.4), the “Half-life (t1/2)” value is listed as above 24 h. In data set [1] (setting [3]), the half-life at 263 µg/mL was above 24 h and the amount remaining at 4 h, 263 µg/mL was found to be 100%. Further, the HbA1c levels entry in data set [2] (after 28 days treatment) is reported as “significantly reduced”. Also, the Percentage fat mass in data set [2] (after 28 days, DEXA analysis) amounted to 30.1%. Moreover, the Insulin sensitivity entry in data set [2] (after 28 days, insulin 25 U/kg bw) was “significantly improved”. Besides, the “Glucose tolerance and plasma insulin excursion in response to an i.p and oral glucose challenge” value in data set [2] (after the 28 day treatment period) is given as “significantly improved”. Moreover, the “HDL-cholesterol levels compared to the lean control and high fat fed mice” value in data set [2] (once daily) was “significantly increased”. In data set [2] (setting [4]), the Bodyweight reduction result is given as “approximately 7%”; the “Day of study at which bodyweight was significantly decreased” value was found to be 16 days; the “Day of study at which circulating blood glucose began to be significantly reduced and plasma insulin increased” value stood at 13 days; the “Day of study at which food intake was significantly reduced” value was 8 days. In addition, the “LDL-cholesterol levels compared to the high fat fed controls” value in data set [2] (once daily, Friedewald equation) is “significantly lowered”. Moreover, in data set [2] (once daily, high-fat fed mice), the Plasma triglyceride levels entry is “significantly lower” and the “Total cholesterol levels in plasma” value is on record as “significantly lower”.
